For 24 molecules, IC50 and inhibition results are on record in patent US8030499B2, “1,3-dihydro-2H-indole-2-one compound and pyrrolidine-2-one compound fused with aromatic heterocycle” (Taisho Pharmaceutical Co., Ltd., priority 2005, dated 2011).

The target of one assay is T1, human V1a receptor (Homo sapiens, UniProt P37288).
T1 construct: expressed in transfected cells; host or cells: 293FT cells
As to the kind of experiment: V1a receptor binding assay ([3H](Arg8)-vasopressin, crude membranes of 293FT cells). The following applies: receptor binding test, 293FT cell membranes. The protocol: (§1) A summary of the methods is given below.
(§2) Each obtained homogenate was centrifuged for 20 minutes at 50,000×g and 4° C., the sediment was resuspended in a 50 mmol/L Tris hydrochloric acid buffer solution (pH7.4, containing 10 mmol/L magnesium chloride and 0.1% bovine serum albumin), which served as a crude membrane preparation. This crude membrane preparation was added with [^3H] (Arg^8) vasopressin (final concentration: 0.1 nmol/L to 0.4 nmol/L), and each test drug (final concentration: 0.1 nmol/L to lμmol/L or 0.01 nmol/L to 0.1 μmol/L) to 22° C. for 90 minutes. After the end of the reaction, the reaction solution was filtrated using a GF/C glass fiber filter, which had been presoaked in 0.3% polyethyleneimine for two hours. After the GF/C glass fiber filter was dried sufficiently, scintillator was added, and the radioactivity on the filter was measured using a liquid scintillation counter. Binding of [^3H] (Arg^8)-vasopressin in the presence of (Arg^8)-vasopressin, in the amounts of 0.1 μmol/L in the V1b receptor binding assay and 5 μmol/L in the V1a and V2 receptor binding assay, were taken as non-specific binding, and the value obtained by subtracting non-specific binding from the total binding in the absence (Arg^8)-vasopressin served as specific binding.

The target of the next assay is T2, human V1b receptor (Homo sapiens, UniProt P47901).
T2 construct: expressed in transfected cells; host or cells: CHO cells
T2 sequence (P47901 1-424): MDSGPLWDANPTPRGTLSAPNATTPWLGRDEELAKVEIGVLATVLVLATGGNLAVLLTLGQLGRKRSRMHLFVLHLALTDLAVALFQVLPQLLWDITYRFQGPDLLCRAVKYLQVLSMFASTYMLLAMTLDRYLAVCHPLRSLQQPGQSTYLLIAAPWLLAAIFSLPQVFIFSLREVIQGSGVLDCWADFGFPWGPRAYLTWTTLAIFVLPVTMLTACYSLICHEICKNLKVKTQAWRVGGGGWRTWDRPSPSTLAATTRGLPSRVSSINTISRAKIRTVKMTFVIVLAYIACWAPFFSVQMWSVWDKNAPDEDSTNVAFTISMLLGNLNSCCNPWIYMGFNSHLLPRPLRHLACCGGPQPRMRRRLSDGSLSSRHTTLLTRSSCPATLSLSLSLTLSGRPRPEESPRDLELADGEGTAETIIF
As to the kind of experiment: V1b receptor binding assay ([3H](Arg8)-vasopressin, crude membranes of CHO cells). Particulars: for IC50: receptor binding test, human V1b, CHO cell membranes; for inhibition at 0.1 µM: 0.1 μmol/L test drug, V1b receptor binding assay, read-out: Rate of inhibition (V1b: % of inhibition). Here is the method:
as §1, §2
In addition, regarding the V1b receptor binding assay, the value obtained by, subtracting the amount of binding in the presence of 0.1 μmol/L test drug from the total amount of binding, divided by the amount of specific binding, served as the rate of inhibition (% of inhibition) of the test drug at the concentration tested.

The next assay deals with T3, human V2 receptor (Homo sapiens, UniProt P30518).
T3 construct: expressed in transfected cells; host or cells: 293FT cells
As to the kind of experiment: V2 receptor binding assay ([3H](Arg8)-vasopressin, crude membranes of 293FT cells). The following applies: receptor binding test, human V2, 293FT cell membranes. Here is the method:
as §1, §2

Counter-ions that a name gives are not always drawn.

T1 sequence (P37288 whole entry): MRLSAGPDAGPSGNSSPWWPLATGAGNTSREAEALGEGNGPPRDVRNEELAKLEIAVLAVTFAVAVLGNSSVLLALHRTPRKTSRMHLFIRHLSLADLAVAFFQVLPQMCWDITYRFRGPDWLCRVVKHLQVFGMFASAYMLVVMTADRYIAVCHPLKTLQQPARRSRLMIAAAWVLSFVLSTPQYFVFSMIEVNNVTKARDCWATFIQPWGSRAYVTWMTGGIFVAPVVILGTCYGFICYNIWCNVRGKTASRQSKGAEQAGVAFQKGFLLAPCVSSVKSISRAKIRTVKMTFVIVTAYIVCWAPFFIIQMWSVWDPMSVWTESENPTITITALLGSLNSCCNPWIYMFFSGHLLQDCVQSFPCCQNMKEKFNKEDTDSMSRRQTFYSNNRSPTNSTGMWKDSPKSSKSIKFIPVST
T3 sequence (P30518 whole entry): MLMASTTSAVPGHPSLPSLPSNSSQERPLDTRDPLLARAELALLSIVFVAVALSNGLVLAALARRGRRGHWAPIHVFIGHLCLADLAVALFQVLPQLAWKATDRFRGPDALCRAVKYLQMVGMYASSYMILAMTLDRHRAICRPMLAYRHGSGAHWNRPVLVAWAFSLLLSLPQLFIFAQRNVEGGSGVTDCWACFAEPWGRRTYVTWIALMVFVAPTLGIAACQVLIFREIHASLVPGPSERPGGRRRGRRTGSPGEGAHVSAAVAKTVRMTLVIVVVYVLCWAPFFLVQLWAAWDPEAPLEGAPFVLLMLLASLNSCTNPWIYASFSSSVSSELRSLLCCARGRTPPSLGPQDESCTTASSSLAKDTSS

By IC50 is commonly meant the concentration at which inhibition is half-maximal. Low readings indicate higher potency, high ones lower potency. `COc1ccc(S(=O)(=O)N2C(=O)C(c3ccccc3OC)(N3CCCC[C@H]3C(=O)N(C)C)c3cc(Cl)ccc32)c(OC(F)(F)F)c1` (single isomer, unassigned) [Example 31]: the concentration for half-maximal inhibition (IC50) at human V1a receptor was 0.953 µM; at human V1b receptor, 0.0052 µM; at human V2 receptor, more than 10 µM.

In the case of `COc1ccc(S(=O)(=O)N2C(=O)C(c3cc(CCN4CCCCC4)ccc3OC)(N3C[C@H](O)C[C@H]3C(=O)N(C)C)c3cc(Cl)ccc32)c(OC(F)(F)F)c1` (single isomer, unassigned) [Example 225], the concentration for half-maximal inhibition (IC50) was determined as 0.101 µM at human V1a receptor, 0.00032 µM at human V1b receptor and 5.05 µM on human V2 receptor.

In general, inhibition refers to the drop in the measured response relative to a control, in per cent. Turning to `COc1ccc(S(=O)(=O)N2C(=O)C(c3cccc4c3OCC4)(N3C[C@H](O)C[C@H]3C(=O)N(C)C)c3cc(Cl)ccc32)c(OC(F)(F)F)c1` (single isomer, unassigned) [Example 89], the inhibition at 0.1 µM on human V1b receptor was found to be 104%. As to `COc1ccc(S(=O)(=O)N2C(=O)C(c3cc(C#N)ccc3OC)(N3C[C@H](O)C[C@H]3C(=O)N(C)C)c3cc(Cl)ccc32)c(OC(F)(F)F)c1` (single isomer, unassigned) [Example 238], the inhibition at 0.1 µM on human V1b receptor worked out at 89%.

Regarding `COc1ccc(S(=O)(=O)N2C(=O)C(c3cc(C)ccc3OC)(N3C[C@H](OC(C)=O)C[C@H]3C(=O)N(C)C)c3cc(Cl)ccc32)c(OC(F)(F)F)c1` (single isomer, unassigned) [Example 137], the inhibition at 0.1 µM on human V1b receptor turned out to be 96%. `COc1ccc(S(=O)(=O)N2C(=O)C(c3cc(C)cnc3OC)(N3C[C@H](O)C[C@H]3C(=O)N(C)C)c3cc(Cl)ccc32)c(OC)c1OC` (stereo partly drawn) [Example 173, (4R)-1-{5-chloro-3-(2-methoxy-5-methylpyridin-3-yl)-2-oxo-1-[(2,3,4-trimethoxyphenyl)sulfonyl]-2,3-dihydro-1H-indol-3-yl}-4-hydroxy-N,N-dimethyl-L-prolinamide]: the inhibition at 0.1 µM at human V1b receptor came out at 104%.

On to `COc1ccc(C2(N3CCCC[C@H]3C(=O)N(C)C)C(=O)N(S(=O)(=O)c3ccc(OC)cc3OC(F)(F)F)c3ccc(C)cc32)cc1` (single isomer, unassigned) [Example 96], for which, on human V1b receptor, the inhibition at 0.1 µM stood at 73%. On the same count and under the same terms, the result for `COc1ccc(S(=O)(=O)N2C(=O)C(c3cc(CC#N)ccc3OC)(N3C[C@H](O)C[C@H]3C(=O)N(C)C)c3cc(Cl)ccc32)c(OC(F)(F)F)c1` (single isomer, unassigned) [Example 236] reads 93%; that for `COc1ccc(S(=O)(=O)N2C(=O)C(c3cc(C)ccc3OC)(N3C[C@H](OCC(O)CO)C[C@H]3C(=O)N(C)C)c3cc(Cl)ccc32)c(OC(F)(F)F)c1` (stereo partly drawn) [Example 150, (4R)-1-(5-chloro-3-(2-methoxy-5-methylphenyl)-1-{[4-methoxy-2-(trifluoromethoxy)phenyl]sulfonyl}-2-oxo-2,3-dihydro-1H-indol-3-yl)-4-(2,3-dihydroxypropoxy)-N,N-dimethyl-L-prolinamide], 89%; that for `COc1ccc(S(=O)(=O)N2C(=O)C(c3cc(OC)ccc3OC)(N3CCCC[C@H]3C(=O)N(C)C)c3cc(Cl)ccc32)c(OC(F)(F)F)c1` (single isomer, unassigned) [Example 117], 95%. The same measure, in the same setting: the result for `COc1ccc(S(=O)(=O)N2C(=O)C(c3cc(C)ccc3OC)(N3C[C@H](OCC#N)C[C@H]3C(=O)N(C)C)c3cc(Cl)ccc32)c(OC(F)(F)F)c1` (single isomer, unassigned) [Example 146] reads 94%; that for `COc1ccc(S(=O)(=O)N2C(=O)C(CC(=O)N3CCN(c4ccncc4)CC3)(c3ccccc3OC)c3cc(Cl)ccc32)c(OC(F)(F)F)c1` (stereo not shown) [Example 43, 5-chloro-3-(2-methoxyphenyl)-1-{[4-methoxy-2-(trifluoromethoxy)phenyl]sulfonyl}-3-[2-oxo-2-(4-pyridin-4-ylpiperazin-1-yl)ethyl]-1,3-dihydro-2H-indol-2-one hydrochloride 1.5 hydrate], 92%; that for `CCN(C)CCCO[C@@H]1C[C@@H](C(=O)N(C)C)N(C2(c3cc(C)ccc3OC)C(=O)N(S(=O)(=O)c3ccc(OC)cc3OC(F)(F)F)c3ccc(Cl)cc32)C1` (stereo partly drawn) [Example 152, (4R)-1-(5-chloro-3-(2-methoxy-5-methylphenyl)-1-{[4-methoxy-2-(trifluoromethoxy)phenyl]sulfonyl}-2-oxo-2,3-dihydro-1H-indol-3-yl)-4-{3-[ethyl(methyl)amino]propoxy}-N,N-dimethyl-L-prolinamide], 107%.

For the molecule `COc1ccc(S(=O)(=O)N2C(=O)C(c3cc(C)ccc3OC)(N3C[C@H](O)C[C@H]3C(=O)N(C)C)c3cc(Br)cnc32)c(OC)c1` (single isomer, unassigned) [Example 121], the inhibition at 0.1 µM at human V1b receptor is 47%. Still for that read-out and setting: the result for `COc1ccc(S(=O)(=O)N2C(=O)C(c3cc(C)ccc3OC)(N3C[C@H](O)C[C@H]3C(=O)N(C)C)c3cc(Cl)cnc32)c(OC(F)(F)F)c1` (single isomer, unassigned) [Example 118] reads 67%; that for `COc1ccc(S(=O)(=O)N2C(=O)C(c3cc(C)ccc3OC)(N3CCN(c4ccncc4)CC3C(=O)N(C)C)c3cc(Cl)ccc32)c(OC(F)(F)F)c1` (stereo not shown) [Example 112, 1-(5-chloro-3-(2-methoxy-5-methylphenyl)-1-{[4-methoxy-2-(trifluoromethoxy)phenyl]sulfonyl}-2-oxo-2,3-dihydro-1H-indol-3-yl)-N,N-dimethyl-4-pyridin-4-yl piperazine-2-carboxamide], 55%. With `COc1ccc(S(=O)(=O)N2C(=O)C(c3cc(C)cnc3OC)(N3C[C@H](O)C[C@H]3C(=O)N(C)C)c3cc(Cl)ccc32)c(OCC(F)(F)F)c1` (single isomer, unassigned) [Example 169], the inhibition at 0.1 µM on human V1b receptor came out at 93%. Still for that read-out and setting: the value for `CNCc1ccc(OC)c(C2(N3C[C@H](O)C[C@H]3C(=O)N(C)C)C(=O)N(S(=O)(=O)c3ccc(OC)cc3OC(F)(F)F)c3ccc(Cl)cc32)c1` (stereo partly drawn) [Example 206, (4R)-1-(5-chloro-3-{2-methoxy-5-[(methylamino)methyl]phenyl}-1-{[4-methoxy-2-(trifluoromethoxy)phenyl]sulfonyl}-2-oxo-2,3-dihydro-1H-indol-3-yl)-4-hydroxy-N,N-dimethyl-L-prolinamide] was 105%; that for `COc1ccc(S(=O)(=O)N2C(=O)C(c3cccc4c3OCO4)(N3C[C@H](O)C[C@H]3C(=O)N(C)C)c3cc(Br)ccc32)c(OC(F)(F)F)c1` (single isomer, unassigned) [Example 92] was 102%; that for `COc1ccc(S(=O)(=O)N2C(=O)C(c3ccccc3C)(N3C[C@H](O)C[C@H]3C(=O)N(C)C)c3cc(Br)ccc32)c(OC(F)(F)F)c1` (single isomer, unassigned) [Example 105] was 95%.

Turning to `COc1ccc(S(=O)(=O)N2C(=O)C(c3cc(CO)ccc3OC)(N3C[C@H](O)C[C@H]3C(=O)N(C)C)c3cc(Cl)ccc32)c(OC(F)(F)F)c1` (single isomer, unassigned) [Example 203], the inhibition at 0.1 µM at human V1b receptor was found to be 87%.

In the case of `COc1ccc(S(=O)(=O)N2C(=O)C(c3cccc(OC)c3OC)(N3C[C@H](O)C[C@H]3C(=O)N(C)C)c3cc(Cl)ccc32)c(OC(F)(F)F)c1` (single isomer, unassigned) [Example 240], the inhibition at 0.1 µM at human V1b receptor is 85%.

`COc1ccc(S(=O)(=O)N2C(=O)C(c3cc(C)ccc3OC)(N3C[C@H](OCCC(N)=O)C[C@H]3C(=O)N(C)C)c3cc(Cl)ccc32)c(OC(F)(F)F)c1` (stereo partly drawn) [Example 144, (4R)-4-(3-amino-3-oxopropoxy)-1-(5-chloro-3-(2-methoxy-5-methylphenyl)-1-{[4-methoxy-2-(trifluoromethoxy)phenyl]sulfonyl}-2-oxo-2,3-dihydro-1H-indol-3-yl)-N,N-dimethyl-L-prolinamide]: on human V1b receptor, the inhibition at 0.1 µM came out at 95%. Still for that read-out and setting: the result for `COc1ccc(S(=O)(=O)N2C(=O)C(NCC(=O)N3CCN(c4ccncc4)CC3)(c3ccccc3OC)c3cc(Cl)ccc32)c(OC(F)(F)F)c1` (stereo not shown) [Example 58, 5-chloro-3-(2-methoxyphenyl)-1-{[4-methoxy-2-(trifluoromethoxy)phenyl]sulfonyl}-3-{[2-oxo-2-(4-pyridin-4-ylpiperazin-1-yl)ethyl]amino}-1,3-dihydro-2H-indol-2-one] reads 77%.
